Tests used:
Assay type in all cases: in vivo
[1] = test system: Alopecurus myosuroides (ALOMY); test: Post-emergence glasshouse herbicide test; settings: post-emergence (sprayed after 8 days cultivation), 1000 g/h, evaluated after 13 days, five point scale
Protocol: (§1) Seeds of a variety of test species are sown in standard soil in pots (Alopecurus myosuroides (ALOMY), Setaria faberi (SETFA), Echinochloa crus-galli (ECHCG), Solanum nigrum (SOLNI), Amaranthus retoflexus (AMARE), Ipomoea hederacea (IPOHE)). After cultivation for one day (pre-emergence) or after 8 days cultivation (post-emergence) under controlled conditions in a glasshouse (at 24/16° C., day/night; 14 hours light; 65% humidity), the plants are sprayed with an aqueous spray solution derived from the formulation of the technical active ingredient in acetone/water (50:50) solution containing 0.5% Tween 20 (polyoxyethelyene sorbitan monolaurate, CAS RN 9005-64-5). Compounds are applied at 1000 g/h. The test plants are then grown in a glasshouse under controlled conditions in a glasshouse (at 24/16° C., day/night; 14 hours light; 65% humidity) and watered twice daily. After 13 days for pre and post-emergence, the test is evaluated for the percentage damage caused to the plant. The biological activities are shown in the following table on a five point scale (5=80-100%; 4=60-79%; 3=40-59%; 2=20-39%; 1=0-19%).

[2] = test system: Amaranthus retoflexus (AMARE); test: Post-emergence glasshouse herbicide test; settings: post-emergence (sprayed after 8 days cultivation), 1000 g/h, evaluated after 13 days, five point scale
Protocol: as §1

[3] = test system: Echinochloa crus-galli (ECHCG); test: Post-emergence glasshouse herbicide test; settings: post-emergence (sprayed after 8 days cultivation), 1000 g/h, evaluated after 13 days, five point scale
Protocol: as §1

[4] = test system: Ipomoea hederacea (IPOHE); test: Post-emergence glasshouse herbicide test; settings: post-emergence (sprayed after 8 days cultivation), 1000 g/h, evaluated after 13 days, five point scale
Protocol: as §1

Setaria faberi (SETFA) [5] = test: Post-emergence glasshouse herbicide test; settings: post-emergence (sprayed after 8 days cultivation), 1000 g/h, evaluated after 13 days, five point scale
Protocol: as §1

Solanum nigrum (SOLNI) [6] = test: Post-emergence glasshouse herbicide test; settings: post-emergence (sprayed after 8 days cultivation), 1000 g/h, evaluated after 13 days, five point scale
Protocol: as §1

[7] = test system: Alopecurus myosuroides (ALOMY); test: Pre-emergence glasshouse herbicide test; settings: pre-emergence (sprayed after one day cultivation), 1000 g/h, evaluated after 13 days, five point scale
Protocol: as §1

[8] = test system: Amaranthus retoflexus (AMARE); test: Pre-emergence glasshouse herbicide test; settings: pre-emergence (sprayed after one day cultivation), 1000 g/h, evaluated after 13 days, five point scale
Protocol: as §1

[9] = test system: Echinochloa crus-galli (ECHCG); test: Pre-emergence glasshouse herbicide test; settings: pre-emergence (sprayed after one day cultivation), 1000 g/h, evaluated after 13 days, five point scale
Protocol: as §1

[10] = test system: Ipomoea hederacea (IPOHE); test: Pre-emergence glasshouse herbicide test; settings: pre-emergence (sprayed after one day cultivation), 1000 g/h, evaluated after 13 days, five point scale
Protocol: as §1

Setaria faberi (SETFA) [11] = test: Pre-emergence glasshouse herbicide test; settings: pre-emergence (sprayed after one day cultivation), 1000 g/h, evaluated after 13 days, five point scale
Protocol: as §1

Solanum nigrum (SOLNI) [12] = test: Pre-emergence glasshouse herbicide test; settings: pre-emergence (sprayed after one day cultivation), 1000 g/h, evaluated after 13 days, five point scale
Protocol: as §1

SMILES | percentage damage caused to the plant, POST Application ALOMY [1] | percentage damage caused to the plant, POST Application AMARE [2] | percentage damage caused to the plant, POST Application ECHCG [3] | percentage damage caused to the plant, POST Application IPOHE [4] | percentage damage caused to the plant, POST Application SETFA (Setaria faberi (SETFA) [5]) | percentage damage caused to the plant, POST Application SOLNI (Solanum nigrum (SOLNI) [6]) | percentage damage caused to the plant, PRE Application ALOMY [7] | percentage damage caused to the plant, PRE Application AMARE [8] | percentage damage caused to the plant, PRE Application ECHCG [9] | percentage damage caused to the plant, PRE Application IPOHE [10] | percentage damage caused to the plant, PRE Application SETFA (Setaria faberi (SETFA) [11]) | percentage damage caused to the plant, PRE Application SOLNI (Solanum nigrum (SOLNI) [12])
Cc1nc(C(F)(F)F)ccc1-n1ncc(Cl)c(O)c1=O [Compound 1.019] | 5 (5=80-100%) | 5 (5=80-100%) | 5 (5=80-100%) | 5 (5=80-100%) | 5 (5=80-100%) | 5 (5=80-100%) | 5 (5=80-100%) | 5 (5=80-100%) | 5 (5=80-100%) | 5 (5=80-100%) | 5 (5=80-100%) | 5 (5=80-100%)
Cc1cnn(-c2ccc(C(F)(F)F)nc2C)c(=O)c1O [Compound 1.020] | 3 (3=40-59%) | 5 (5=80-100%) | 5 (5=80-100%) | 5 (5=80-100%) | 5 (5=80-100%) | 5 (5=80-100%) | 3 (3=40-59%) | 5 (5=80-100%) | 5 (5=80-100%) | 5 (5=80-100%) | 5 (5=80-100%) | 5 (5=80-100%)
C=Cc1cnn(-c2ccc(C(F)(F)F)nc2C)c(=O)c1O [Compound 1.021] | 3 (3=40-59%) | 5 (5=80-100%) | 5 (5=80-100%) | 5 (5=80-100%) | 5 (5=80-100%) | 5 (5=80-100%) | 3 (3=40-59%) | 5 (5=80-100%) | 5 (5=80-100%) | 5 (5=80-100%) | 5 (5=80-100%) | 5 (5=80-100%)
CCc1cnn(-c2ccc(C(F)(F)F)nc2C)c(=O)c1O [Compound 1.022] | 4 (4=60-79%) | 5 (5=80-100%) | 5 (5=80-100%) | 4 (4=60-79%) | 4 (4=60-79%) | 5 (5=80-100%) | 4 (4=60-79%) | 5 (5=80-100%) | 5 (5=80-100%) | 4 (4=60-79%) | 4 (4=60-79%) | 5 (5=80-100%)
Cc1nc(C(F)(F)F)ccc1-n1ncc(Br)c(O)c1=O [Compound 1.023] | 3 (3=40-59%) | 5 (5=80-100%) | 5 (5=80-100%) | 5 (5=80-100%) | 5 (5=80-100%) | 5 (5=80-100%) | 3 (3=40-59%) | 5 (5=80-100%) | 5 (5=80-100%) | 5 (5=80-100%) | 5 (5=80-100%) | 5 (5=80-100%)
C=C(C)c1cnn(-c2ccc(C(F)(F)F)nc2C)c(=O)c1O [Compound 1.024] | 5 (5=80-100%) | 5 (5=80-100%) | 5 (5=80-100%) | 5 (5=80-100%) | 5 (5=80-100%) | 5 (5=80-100%) | 5 (5=80-100%) | 5 (5=80-100%) | 5 (5=80-100%) | 5 (5=80-100%) | 5 (5=80-100%) | 5 (5=80-100%)
CSc1cnn(-c2ccc(C(F)(F)F)nc2C)c(=O)c1O [Compound 1.025] | 2 (2=20-39%) | 5 (5=80-100%) | 5 (5=80-100%) | 5 (5=80-100%) | 5 (5=80-100%) | 5 (5=80-100%) | 2 (2=20-39%) | 5 (5=80-100%) | 5 (5=80-100%) | 5 (5=80-100%) | 5 (5=80-100%) | 5 (5=80-100%)
Cc1c(-n2ncc(C#N)c(O)c2=O)ccc(S(C)(=O)=O)c1C1=NOCC1 [Compound 1.026] | 1 (1=0-19%) | 5 (5=80-100%) | 5 (5=80-100%) | 5 (5=80-100%) | 5 (5=80-100%) | 5 (5=80-100%) | 1 (1=0-19%) | 5 (5=80-100%) | 5 (5=80-100%) | 5 (5=80-100%) | 5 (5=80-100%) | 5 (5=80-100%)
Cc1nc(C(F)(F)F)ccc1-n1nccc(O)c1=O.O=C(O)C(F)(F)F [Compound 1.027] | 1 (1=0-19%) | 4 (4=60-79%) | 5 (5=80-100%) | 5 (5=80-100%) | 4 (4=60-79%) | 5 (5=80-100%) | 1 (1=0-19%) | 4 (4=60-79%) | 5 (5=80-100%) | 5 (5=80-100%) | 4 (4=60-79%) | 5 (5=80-100%)
Cc1nc(C(F)(F)F)ccc1-n1ncc(S(C)(=O)=O)c(O)c1=O [Compound 1.029] | 1 (1=0-19%) | 3 (3=40-59%) | 4 (4=60-79%) | 2 (2=20-39%) | 4 (4=60-79%) | 4 (4=60-79%) | 1 (1=0-19%) | 3 (3=40-59%) | 4 (4=60-79%) | 2 (2=20-39%) | 4 (4=60-79%) | 4 (4=60-79%)

Reference: patent US20140323300A1, “HERBICIDAL COMPOUNDS” (SYNGENTA LIMITED, priority 2011, published 2014)
